Several values for one entry are separate records, joined by “and”; a condition that tells them apart may be missing. Equal entries are not always repeated.
B1: LIPC: M. tuberculosis putative lipase/esterase gene product expressed in E. coli (protein, UniProt P96402 1-403, looked up)
Esterase LipC: MNQRRAAGSTGVAYIRWLLRARPADYMLALSVAGGSLPVVGKHLKPLGGVTAIGVWGARHASDFLSATAKDLLTPGINEVRRRDRASTQEVSVAALRGIVSPDDLAVEWPAPERTPPVCGALRHRRYVHRRRVLYGDDPAQLLDVWRRKDMPTKPAPVLIFVPGGAWVHGSRAIQGYAVLSRLAAQGWVCLSIDYRVAPHHRWPRHILDVKTAIAWARANVDKFGGDRNFIAVAGCSAGGHLSALAGLTANDPQYQAELPEGSDTSVDAVVGIYGRYDWEDRSTPERARFVDFLERVVVQRTIDRHPEVFRDASPIQRVTRNAPPFLVIHGSRDCVIPVEQARSFVERLRAVSRSQVGYLELPGAGHGFDLLDGARTGPTAHAIALFLNQVHRSRAQFAKEVI
B2: LIPN: M. tuberculosis putative lipase/esterase gene product expressed in E. coli (protein, UniProt P95125 1-376, looked up)
Carboxylic ester hydrolase …: MTKSLPGVADLRLGANHPRMWTRRVQGTVVNVGVKVLPWIPTPAKRILSAGRSVIIDGNTLDPTLQLMLSTSRIFGVDGLAVDDDIVASRAHMRAICEAMPGPQIHVDVTDLSIPGPAGEIPARHYRPSGGGATPLLVFYHGGGWTLGDLDTHDALCRLTCRDADIQVLSIDYRLAPEHPAPAAVEDAYAAFVWAHEHASDEFGALPGRVAVGGDSAGGNLSAVVCQLARDKARYEGGPTPVLQWLLYPRTDFTAQTRSMGLFGNGFLLTKRDIDWFHTQYLRDSDVDPADPRLSPLLAESLSGLAPALIAVAGFDPLRDEGESYAKALRAAGTAVDLRYLGSLTHGFLNLFQLGGGSAAGTNELISALRAHLSRV
modifications: expressed in E. coli
B3: LIPQ: M. tuberculosis putative lipase/esterase gene product expressed in E. coli (protein, UniProt I6Y9F7 1-421, looked up)
Esterase LipQ: MHIASVTSRCSRAGAEALRQGAQLAADARDTCRAGALLLRGSPCAIGWVAGWLSAEFPARVVTGHALSRISPRSIGRFGTSWAAQRADQILHAALVDAFGPDFRDLVWHPTGEQSEAARRSGLLNLPHIPGPHRRYAAQTSDIPYGPGGRENLLDIWRRPDLAPGRRAPVLIQVPGGAWTINGKRPQAYPLMSRMVELGWICVSINYSKSPRCTWPAHIVDVKRAIAWVRENIADYGGDPDFITITGGSAGAHLAALAALSANDPALQPGFESADTAVQAAAPYYGVYDLTNAENMHEMMMPFLEHFVMRSRYVDNPGLFKAASPISYVHSEAPPFFVLHGEKDPMVPSAQSRAFSAALRDAGAATVSYAELPNAHHAFDLAATVRSRMVAEAVSDFLGVIYGRRMGARKGSLALSSPPAS
B4: LIPI: M. tuberculosis putative lipase/esterase gene product expressed in E. coli (protein, UniProt P71668 1-320, looked up)
Esterase LipI: MPSLDNTADEKPAIDPILLKVLDAVPFRLSIDDGIEAVRQRLRDLPRQPVHPELRVVDLAIDGPAGPIGTRIYWPPTCPDQAEAPVVLYFHGGGFVMGDLDTHDGTCRQHAVGADAIVVSVDYRLAPEHPYPAAIEDAWAATRWVAEHGRQVGADLGRIAVAGDSAGGTIAAVIAQRARDMGGPPIVFQLLWYPSTLWDQSLPSLAENADAPILDVKAIAAFSRWYAGEIDLHNPPAPMAPGRAENLADLPPAYIAVAGYDPLRDDGIRYGELLAAAGVPVEVHNAQTLVHGYVGYAGVVPAATEATNRGLVALRVVLHG
modifications: expressed in E. coli
B5: LIPM: M. tuberculosis putative lipase/esterase gene product expressed in E. coli (protein, UniProt Q50681 1-431, looked up)
Probable carboxylic ester …: MGAPRLIHVIRQIGALVVAAVTAAATINAYRPLARNGFASLWSWFIGLVVTEFPLPTLASQLGGLVLTAQRLTRPVRAVSWLVAAFSALGLLNLSRAGRQADAQLTAALDSGLGPDRRTASAGLWRRPAGGGTAKTPGPLRMLRIYRDYAHDGDISYGEYGRANHLDIWRRPDLDLTGTAPVLFQIPGGAWTTGNKRGQAHPLMSHLAELGWICVAINYRHSPRNTWPDHIIDVKRALAWVKAHISEYGGDPDFIAITGGSAGGHLSSLAALTPNDPRFQPGFEEADTRVQAAVPFYGVYDFTRLQDAMHPMMLPLLERMVVKQPRTANMQSYLDASPVTHISADAPPFFVLHGRNDSLVPVQQARGFVDQLRQVSKQPVVYAELPFTQHAFDLLGSARAAHTAIAVEQFLAEVYATQHAGSEPGPAVAIP
modifications: expressed in E. coli
B6: LIPL: M. tuberculosis putative lipase/esterase gene product expressed in E. coli (protein, UniProt P71778 1-429, looked up)
Esterase/beta-lactamase LipL: MMVDTGVDHRAVSSHDGPDAGRRVFGAADPRFACVVRAFASMFPGRRFGGGALAVYLDGQPVVDVWKGWADRAGWVPWSADSAPMVFSATKGMTATVIHRLADRGLIDYEAPVAEYWPAFGANGKATLTVRDVMRHQAGLSGLRGATQQDLLDHVVMEERLAAAVPGRLLGKSAYHALTFGWLMSGLARAVTGKDMRLLFREELAEPLDTDGLHLGRPPADAPTRVAEIIMPQDIAANAVLTCAMRRLAHRFSGGFRSMYFPGAIAAVQGEAPLLDAEIPAANGVATARALARMYGAIANGGEIDGIRFLSRELVTGLTRNRRQVLPDRNLLVPLNFHLGYHGMPIGNVMPGFGHVGLGGSIGWTDPETGVAFALVHNRLLSPLVMTDHAGFVGIYHLIRQAAAQARKRGYQPVTPFGAPYSEPGAAAG
B7: LIPJ: M. tuberculosis putative lipase/esterase gene product expressed in E. coli (protein, UniProt O07732 1-462, looked up)
Bifunctional lipase/adenylate …: MAQAPHIHRTRYAKCGDMDIAYQVLGDGPTDLLVLPGPFVPIDSIDDEPSLYRFHRRLASFSRVIRLDHRGVGLSSRLAAITTLGPKFWAQDAIAVMDAVGCEQATIFAPSFHAMNGLVLAADYPERVRSLIVVNGSARPLWAPDYPVGAQVRRADPFLTVALEPDAVERGFDVLSIVAPTVAGDDVFRAWWDLAGNRAGPPSIARAVSKVIAEADVRDVLGHIEAPTLILHRVGSTYIPVGHGRYLAEHIAGSRLVELPGTDTLYWVGDTGPMLDEIEEFITGVRGGADAERMLATIMFTDIVGSTQHAAALGDDRWRDLLDNHDTIVCHEIQRFGGREVNTAGDGFVATFTSPSAAIACADDIVDAVAALGIEVRIGIHAGEVEVRDASHGTDVAGVAVHIGARVCALAGPSEVLVSSTVRDIVAGSRHRFAERGEQELKGVPGRWRLCVLMRDDATRTR
modifications: expressed in E. coli

Target: T1, LIPY (Mycobacterium tuberculosis, UniProt I6Y2J4)
T1 construct: The 24 open-reading frames (ORFs) were amplified from the genomic DNA of M. tuberculosis H37Rv; 6xHis (pET200 D-TOPO N-terminal fusion) (N); made in house; host or cells: E. coli BL21 Star (DE3)
T1 sequence (I6Y2J4 1-437): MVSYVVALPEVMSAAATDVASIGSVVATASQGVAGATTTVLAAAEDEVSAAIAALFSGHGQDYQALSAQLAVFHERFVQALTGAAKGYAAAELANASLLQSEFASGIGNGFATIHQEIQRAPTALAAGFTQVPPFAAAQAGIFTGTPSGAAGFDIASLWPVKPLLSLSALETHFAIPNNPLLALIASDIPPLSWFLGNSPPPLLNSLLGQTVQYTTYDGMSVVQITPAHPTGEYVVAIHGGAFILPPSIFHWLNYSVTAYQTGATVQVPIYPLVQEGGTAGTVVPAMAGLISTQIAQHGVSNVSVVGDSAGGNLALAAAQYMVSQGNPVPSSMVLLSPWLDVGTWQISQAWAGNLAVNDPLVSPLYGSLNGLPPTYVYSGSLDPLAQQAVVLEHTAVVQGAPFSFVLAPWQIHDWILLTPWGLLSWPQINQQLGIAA
Format: biochemical
Conditions: not given
In the case of [Cl-].[K+] [KCl], the “Effect of salt on LIPY activity (in words)” value (shortened to “Effect of salt”) is reported as “enhanced the activity” and the “LIPY activity (triolein hydrolase) Mean ± SD” value is reported as 675.2 ± 103.5 nmol/mg/min and 686.8 ± 68.8 nmol/mg/min. For [Cl-].[Cl-].[Mg+2] [MgCl2], the “Effect of salt” value was “inhibited the activity” and the “LIPY activity (triolein hydrolase) Mean ± SD” value was 306.3 ± 111.1 nmol/mg/min and 219.9 ± 34.3 nmol/mg/min. With [Cl-].[Cl-].[Co+2] [CoCl2] the “Effect of salt” value was “inhibited the activity”. With CC(=O)[O-].[Na+] [CH3COO.Na, sodium acetate] the “Effect of salt” value was “enhanced the activity” and the “LIPY activity (triolein hydrolase) Mean ± SD” value was 681.7 ± 80.3 nmol/mg/min and 729.3 ± 96.5 nmol/mg/min. With CC(=O)[O-].[K+] [CH3COO.K, potassium acetate] the “Effect of salt” value was “enhanced the activity” and the “LIPY activity (triolein hydrolase) Mean ± SD” value was 692.6 ± 57.0 nmol/mg/min and 749.0 ± 73.3 nmol/mg/min. For [Cl-].[Na+] [NaCl], the “Effect of salt” value was “enhanced the activity” and the “LIPY activity (triolein hydrolase) Mean ± SD” value was 681.3 ± 87.2 nmol/mg/min. In the case of [Cl][Mn][Cl] [MnCl2], the “Effect of salt” value is reported as “inhibited the activity”. In the case of [Ca+2].[Cl-].[Cl-] [CaCl2], the “Effect of salt” value is reported as “inhibited”. With [Cl-].[Cl-].[Zn+2] [ZnCl2] the “Effect of salt” value was “inhibited the activity”.

Same assay, conditions: 0.5 µM
In the case of CCOP(=O)(OCC)Oc1ccc([N+](=O)[O-])cc1 [E-600, diethyl-p-nitrophenyl phosphate, reference compound], the “Inhibition of LIPY activity” value is reported as 99.5%.

Same assay, conditions: 0.1%
With “polyethylene glycol tert-octylphenyl ether [Triton X-100, reference compound]” the “Effect of detergent on LIPY lipase activity” value (from here on “Effect of detergent”) was “stimulated the activity”.

Same assay, conditions: all concentrations from 0.1-2.0%
For CCCCCCCCCCCC(=O)OCCOCCOCCOCCOCCOCCOCCOCCOCCOCCOCCOCCOCCOCCOCCOCCOCCOCCOCCOCCOCC(OCCOCCOCCOCCOCCOCCOCCOCCOCCOCCOCCOCCOCCOCCOCCOCCOCCOCCOCCOCCO)C1OCC(OCCOCCOCCOCCOCCOCCOCCOCCOCCOCCOCCOCCOCCOCCOCCOCCOCCOCCOCCOCCO)C1OCCOCCOCCOCCOCCOCCOCCOCCOCCOCCOCCOCCOCCOCCOCCOCCOCCOCCOCCOCCO (stereo not drawn) [Tween-20, polyethylene glycol sorbitan monolaurate, reference compound], the “Effect of detergent” value was “inhibited”.

Same assay, conditions: concentrations above 2 mM
With CCCCCCCCCCCCOS(=O)(=O)[O-].[Na+] [SDS, sodium dodecyl sulfate, reference compound] the “Effect of detergent” value was “severely inhibited”.

Same assay, conditions: concentrations higher than 0.1%
With “polyethylene glycol tert-octylphenyl ether [Triton X-100, reference compound]” the “Effect of detergent” value was “inhibitory”.

Same assay, conditions: concentrations up to 2 mM
In the case of CCCCCCCCCCCCOS(=O)(=O)[O-].[Na+] [SDS, sodium dodecyl sulfate, reference compound], the “Effect of detergent” value is reported as “stimulated slightly”.

Test system: not given
Format: biochemical, M. tuberculosis
Conditions: pH 8
Work on B1 yielded a TG hydrolase activity of 3.3 nmol/mg/min. For B2, the TG hydrolase activity was 0 nmol/mg/min. Work on B3 yielded a TG hydrolase activity of 0.11 nmol/mg/min. In the case of B4, the TG hydrolase activity is reported as 0 nmol/mg/min. For B5, the TG hydrolase activity was 0.02 nmol/mg/min. In the case of B6, the TG hydrolase activity is reported as 3.4 nmol/mg/min. In the case of B7, the TG hydrolase activity is reported as 0.04 nmol/mg/min.
